Series [1] can be described thus: Compound toxicity, ATPLite total ATP levels. As to conditions: human. The format is cell-based. The procedure:
(§1) Compound toxicity is evaluated by seeding cells at 15,000 cells/well and treating with compound as described above.

Another series has as its system HBV. The series is described as follows: HepAD38 antiviral assay: reduction of viral product accumulation (virion DNA by qPCR, HBsAg/HBeAg by ELISA). The format is cell-based, hepatitis B virus. The procedure:
Methods: HepAD38 cells are maintained as previously reported (Ladner et al, Antimicrob. Agents Chemother. 1997, […], 1715). Briefly, cells are passaged upon attaining confluency in DMEM/F12 media in the presence of 10% FBS, Penn/Strep, 250 μg/mL G418, and 1 μg/ml tetracycline. Novel compounds are screened by first washing cells three times with PBS to remove tetracycline, and plating in 96 well plates at 35,000 cells/well. Compounds dissolved in DMSO are then diluted 1:200 into wells containing cells. Five days after compound addition, material is harvested for analysis. For an extended 8 day analysis, cells are plated and treated as described above, but media and compound are refreshed on d2 and d5 post initial treatment.
On harvest day, virion DNA is obtained by lysing with Sidestep Lysis and Stabilization Buffer and then quantified via quantitative real time PCR. Commercially available ELISA kits are used to quantitate the viral proteins HBsAg (Alpco) or HbeAg (US Biological) by following the manufacturer's recommended protocol after diluting samples to match the linear range of their respective assays. Irrespective of readout, compound concentrations that reduce viral product accumulation in the cell lysates or supernatants by 50% relative to no drug controls (EC50) are reported; EC50 ranges are as follows: A<0.1 μM; B 0.1-1 μM; C>1 μM.

Another series concerns HepG2. The series is described as follows: Compound toxicity, ATPLite total ATP levels. The format is cell-based. As to conditions: human, 3 days. Here is the method: as §1
On the technique in general: In ATP-based viability assays light output follows the ATP content of the culture.

Setting [2] is: HepG2 cells, HepG2, three days after compound addition, 50% reduction of total ATP levels (ATPLite), read-out: HepG2 CC50.
The mark [3] stands for this setting: Hepatitis B virus, HepAD38 cells, 50% reduction of viral product accumulation relative to no drug controls, class symbols, read-out: HepAD38 EC50.
The mark [4] stands for this setting: Hepatitis B virus, HePAD38, read-out: HepAD38 EC50 (μM).
Setting [5] is: Hepatitis B virus, HepAD38 cells, 50% reduction of viral product accumulation relative to no drug controls, numeric bound, read-out: HepAD38 EC50.
[6] abbreviates: read-out: HepAD38 EC50, HepAD38 cells, 50% reduction of viral product accumulation relative to no drug controls, class symbols.

The CC50 is the concentration that lowers cell viability or growth by half. For orientation: EC50 means the concentration that produces a half-maximal response.

Structures are written as SMILES. Like-named read-outs stand apart in the source and are kept apart here.

`O=S(=O)(N[C@H]1CC2=C(c3ccn(C(F)F)n3)[C@H](c3ccc(F)cc3Cl)N=C(c3nccs3)N2C1)[C@H]1CC2CCC(C1)[C@H]2O` [Example 17]: the CC50 at 3 days in series [1] (setting [2]) was 10 to 25 µM. Also, the EC50 with HBV (setting [3]) was < 0.1 µM.
With `O=S(=O)(N[C@H]1CC2=C(c3ccn(C(F)F)n3)[C@H](c3ccc(F)cc3Cl)N=C(c3nccs3)N2C1)N1C2CCC1CC(O)(c1nccs1)C2` (stereo partly shown) [Example 20], the EC50 in the series on HBV (setting [4]) is < 0.1 µM.
`O=S(=O)(N[C@H]1CC2=C(c3ccn(C(F)F)n3)[C@H](c3ccc(F)cc3Cl)N=C(c3nccs3)N2C1)N1C2CCC1CC(O)C2` (single isomer, unassigned) [Example 1]: the CC50 in the series on HepG2 lay in the range of 10 to 25 µM. Also, the EC50 in the series on HBV (setting [4]) is < 0.1 µM.
In the case of `O=S(=O)(N[C@H]1CC2=C(c3ccn(C(F)F)n3)[C@H](c3ccc(F)cc3Cl)N=C(c3nccs3)N2C1)N1C2CCC1CC(F)(F)C2` [Example 10], the EC50 in the series on HBV (setting [4]) was < 0.1 µM.
On the same count and under the same terms, in the case of `O=S(=O)(C[C@H]1CC2=C(c3ccn(C(F)F)n3)[C@H](c3ccc(F)cc3Cl)N=C(c3nccs3)N2C1)N1C2CC[C@H]1C[C@@](O)(c1ccccn1)C2` [Example 38] it was 0.1 to 1 µM.
In the case of `C[C@]1(O)C2CCC1C[C@@H](S(=O)(=O)N[C@H]1CC3=C(c4ccn(C(F)F)n4)[C@H](c4ccc(F)cc4Cl)N=C(c4nccs4)N3C1)C2` [Example 25], in the series on HBV (setting [3]), the EC50 is < 0.1 µM.
With `O=S(=O)(N[C@H]1CC2=C(c3ccn(C(F)F)n3)[C@H](c3ccc(F)cc3Cl)N=C(c3nccs3)N2C1)[C@H]1CC2CCC(C1)[C@]2(O)c1ccccn1` [Example 18], the CC50 at 3 days in series [1] (setting [2]) fell in the range of 10 to 25 µM. Also, the EC50 in the series on HBV (setting [3]) was < 0.1 µM.
As to `O=S(=O)(N[C@H]1CC2=C(c3ccn(C(F)F)n3)[C@H](c3ccc(F)cc3Cl)N=C(c3nccs3)N2C1)N1C2CC[C@H]1C=C(c1cn(-c3ccccn3)nn1)C2` [Example 32], the CC50 at 3 days in series [1] (HepG2 CC50 (μM)) was > 25 µM. In addition, in the series with HBV (setting [4]), the EC50 is < 0.1 µM.
For `O=S(=O)(N[C@H]1CC2=C(c3ccn(C(F)F)n3)[C@H](c3ccc(F)cc3Cl)N=C(c3nccs3)N2C1)[C@@H]1CC2CC[C@@H](C1)[C@@]2(O)c1cn(-c2ccccn2)nn1` [Example 28], the EC50 in the series with HBV (setting [3]) is < 0.1 µM.
Still for that read-out and setting: for `O=S(=O)(C[C@H]1CC2=C(c3ccn(C(F)F)n3)[C@H](c3ccc(F)cc3Cl)N=C(c3nccs3)N2C1)N1CC2CC[C@@H](C1)[C@]2(O)c1ccccn1` [Example 37] the value was < 0.1 µM.
Still for that read-out and setting: for `O=S(=O)(N[C@H]1CC2=C(c3ccn(C(F)F)n3)[C@H](c3ccc(F)cc3Cl)N=C(c3nccs3)N2C1)N1CC2CCC(C1)C2O` (stereo partly shown) [Example 15] the value was < 0.1 µM.
On to `O=S(=O)(N[C@H]1CC2=C(c3ccn(C(F)F)n3)[C@H](c3ccc(F)cc3Cl)N=C(c3nccs3)N2C1)N1C2CCC1CC(O)(c1ccccn1)C2` (stereo partly shown) [Example 19], for which, in the series on HBV (setting [4]), the EC50 was < 0.1 µM.
As for `O=S(=O)(N[C@H]1CC2=C(c3ccn(C(F)F)n3)[C@H](c3ccc(F)cc3Cl)N=C(c3nccs3)N2C1)[C@H]1C2CC[C@H]1C[C@@](O)(CO)C2` [Example 35], in series [1] (setting [2]), the CC50 at 3 days was > 25 µM. In addition, in the series with HBV (setting [3]), the EC50 is < 0.1 µM.
In the case of `C#CC1(O)CC2CCC(C1)N2S(=O)(=O)N[C@H]1CC2=C(c3ccn(C(F)F)n3)[C@H](c3ccc(F)cc3Cl)N=C(c3nccs3)N2C1` (stereo partly shown) [Example 22], in the series with HBV (setting [4]), the EC50 is < 0.1 µM.
Turning to `O=C(N[C@H]1CC2=C(c3ccn(C(F)F)n3)[C@H](c3ccc(F)cc3Cl)N=C(c3nccs3)N2C1)N1C[C@H]2CC[C@@H](C1)[C@@H]2O` [Example 6], in the series on HBV (setting [3]), the EC50 lay in the range of 0.1 to 1 µM.
Take `O=S(=O)(N[C@H]1CC2=C(c3ccn(C(F)F)n3)[C@H](c3ccc(F)cc3Cl)N=C(c3nccs3)N2C1)N1CC2CCC(C1)O2` [Example 2]: the EC50 in the series with HBV (setting [3]) was < 0.1 µM.
Same read-out and setting: in the case of `O=C(N[C@H]1CC2=C(c3ccn(C(F)F)n3)[C@H](c3ccc(F)cc3Cl)N=C(c3nccs3)N2C1)N1C[C@H]2CC[C@@H](C1)[C@H]2O` [Example 7] it was 0.1 to 1 µM.
For the compound `O=C(N[C@H]1CC2=C(c3ccn(C(F)F)n3)[C@H](c3ccc(F)cc3Cl)N=C(c3nccs3)N2C1)N1CC2CCC(C1)O2` [Example 4], the EC50 in the series with HBV (setting [5]) was > 0.4 µM.
Take `O=S(=O)(N[C@H]1CC2=C(c3ccn(C(F)F)n3)[C@H](c3ccc(F)cc3Cl)N=C(c3nccs3)N2C1)N1C2CCC1CC(O)(c1cn(-c3ccccn3)nn1)C2` (stereo partly shown) [Example 24]: the CC50 at 3 days in series [1] (HepG2 CC50 (μM)) was > 25 µM. Besides, in the series on HBV (setting [4]), the EC50 was < 0.1 µM.
For `O=C1CC2CCC(C1)N2S(=O)(=O)N[C@H]1CC2=C(c3ccn(C(F)F)n3)[C@H](c3ccc(F)cc3Cl)N=C(c3nccs3)N2C1` [Example 9] the same measures were > 25 µM and < 0.1 µM.
Turning to `O=C(N[C@H]1CC2=C(c3ccn(C(F)F)n3)[C@H](c3ccc(F)cc3Cl)N=C(c3nccs3)N2C1)N1[C@@H]2CC[C@H]1C[C@@H](O)C2` [Example 5], the EC50 with HBV (setting [5]) was > 0.4 µM.
Take `O=S(=O)(N[C@H]1CC2=C(c3ccn(C(F)F)n3)[C@H](c3ccc(F)cc3Cl)N=C(c3nccs3)N2C1)N1C2CC[C@H]1C[C@](O)(c1cn(-c3ccccn3)nn1)C2` [Example 31]: the EC50 in the series on HBV (setting [4]) was < 0.1 µM.
For `O=S(=O)(N[C@H]1CC2=C(c3ccn(C(F)F)n3)[C@H](c3ccc(F)cc3Cl)N=C(c3nccs3)N2C1)N1C2CCC1CC(O)(c1nccs1)C2` (stereo partly shown) [Example 23], the CC50 at 3 days in series [1] (HepG2 CC50 (μM)) was > 25 µM. Moreover, the EC50 with HBV (setting [6]) is < 0.1 µM.
`CC(C)(C)OC(=O)N1C2CCC1CC(NS(=O)(=O)N[C@H]1CC3=C(c4ccn(C(F)F)n4)[C@H](c4ccc(F)cc4Cl)N=C(c4nccs4)N3C1)C2` (stereo partly shown) [Example 11]: the EC50 in the series on HBV (setting [4]) was in the range of 0.1 to 1 µM.
The same measure, in the same setting: for `O=C(N[C@H]1CC2=C(c3ccn(C(F)F)n3)[C@H](c3ccc(F)cc3Cl)N=C(c3nccs3)N2C1)N1[C@@H]2CC[C@H]1C[C@H](O)C2` [Example 8] the value was 0.1 to 1 µM.
`C#C[C@]1(O)C2CCC1C[C@@H](S(=O)(=O)N[C@H]1CC3=C(c4ccn(C(F)F)n4)[C@H](c4ccc(F)cc4Cl)N=C(c4nccs4)N3C1)C2` [Example 26]: the EC50 in the series with HBV (setting [3]) is < 0.1 µM.
As to `O=S(=O)(N[C@H]1CC2=C(c3ccn(C(F)F)n3)[C@H](c3ccc(F)cc3Cl)N=C(c3nccs3)N2C1)N1C2CCC1CC(O)C2` (single isomer, unassigned) [Example 3], in the series on HepG2, the CC50 was > 25 µM. Moreover, the EC50 with HBV (setting [6]) was < 0.1 µM.
Consider `O=S(=O)(NC1CC2CCC(C1)C2O)N[C@H]1CC2=C(c3ccn(C(F)F)n3)[C@H](c3ccc(F)cc3Cl)N=C(c3nccs3)N2C1` (stereo partly shown) [Example 12], for which the EC50 in the series on HBV (setting [3]) was 0.1 to 1 µM.
Consider `O=C1C2CCC1CC(S(=O)(=O)N[C@H]1CC3=C(c4ccn(C(F)F)n4)[C@H](c4ccc(F)cc4Cl)N=C(c4nccs4)N3C1)C2` (stereo partly shown) [Example 16], for which the EC50 in the series on HBV (setting [3]) lay in the range of 0.1 to 1 µM.
For the compound `O=S(=O)(N[C@H]1CC2=C(c3ccn(C(F)F)n3)[C@H](c3ccc(F)cc3Cl)N=C(c3nccs3)N2C1)N1C2CCC1CC(O)(Cn1ccnc1)C2` (stereo partly shown) [Example 30], the EC50 with HBV (setting [4]) is < 0.1 µM.
As for `CN([C@H]1CC2=C(c3ccn(C(F)F)n3)[C@H](c3ccc(F)cc3Cl)N=C(c3nccs3)N2C1)S(=O)(=O)N1C2CC[C@H]1C[C@@](O)(c1nccs1)C2` [Example 36], in series [1] (HepG2 CC50 (μM)), the CC50 at 3 days is > 25 µM. In the series with HBV (setting [4]), the EC50 was < 0.1 µM.
As for `O=C1NCC2(CC3CCC(C2)N3S(=O)(=O)N[C@H]2CC3=C(c4ccn(C(F)F)n4)[C@H](c4ccc(F)cc4Cl)N=C(c4nccs4)N3C2)O1` (stereo partly shown) [Example 21], the CC50 at 3 days in series [1] (HepG2 CC50 (μM)) is > 25 µM. Also, the EC50 with HBV (setting [4]) was < 0.1 µM.
Take `O=S(=O)(N[C@H]1CC2=C(c3ccn(C(F)F)n3)[C@H](c3ccc(F)cc3Cl)N=C(c3nccs3)N2C1)[C@H]1CC2CCC(C1)[C@]2(O)CO` [Example 27]: the CC50 at 3 days in series [1] (setting [2]) is > 25 µM. Also, in the series with HBV (setting [3]), the EC50 is < 0.1 µM.
For `O=C1CC2CC[C@@H](C1)[C@H]2S(=O)(=O)N[C@H]1CC2=C(c3ccn(C(F)F)n3)[C@H](c3ccc(F)cc3Cl)N=C(c3nccs3)N2C1` [Example 33] the same measures were > 25 µM and < 0.1 µM.
On to `O=S(=O)(N[C@H]1CC2=C(c3ccn(C(F)F)n3)[C@H](c3ccc(F)cc3Cl)N=C(c3nccs3)N2C1)[C@H]1C2CC[C@H]1C[C@@](O)(c1ccccn1)C2` [Example 34], for which the EC50 with HBV (setting [3]) is < 0.1 µM.
In the case of `O=S(=O)(N[C@H]1CC2=C(c3ccn(C(F)F)n3)[C@H](c3ccc(F)cc3Cl)N=C(c3nccs3)N2C1)N1CC2CCC(C1)C2(O)c1ccccn1` (stereo partly shown) [Example 14], the EC50 in the series with HBV (setting [3]) was < 0.1 µM.

These data come from patent US11760755B2, “Hepatitis B antiviral agents” (priority 2019, dated 2023).
